Source: patent publication US20170202792A1, “METHOD FOR TREATING TAU-ASSOCIATED DISEASES” (NATIONAL TAIWAN NORMAL UNIVERSITY, priority 2016, published 2017)

Tested on: mouse hippocampal primary culture cells
Experiment: Mouse hippocampal primary culture under tau toxicity (WT and GFX)
Type: cell-based
Details: 10 nM WT and GFX; 0.1, 0.25, 0.5 μM compound (I), 12 hours
Experimental: The mouse hippocampal primary culture cells were isolated from the hippocampi of C57BL/6J mouse embryos at days 16-18. On days in vitro (DIV) 4 and 7, 2 μM of cytosine arabinoside was added to the culture medium for reducing the glial cell populations. On DIV 9, the cells were treated with 10 nM of Wortmannin (WT) and GF109203X (GFX) to induce tau hyperphosphorylation for mimicking an AD condition. 0, 0.1, 0.25, and 0.5 μM of compound (I) were then added to the cells at DIV 9. Cells were harvested 12 hours later for immunocytochemical staining with NeuN (for neuron) and MAP2 (for neurite morphology) antibodies.

With `CCCCC/C=C\C/C=C\C/C=C\C/C=C\CCCC(=O)Nc1ccc(O)cc1` [compound (I), (5Z, 8Z, 11Z,14Z)-N-(4-Hydroxyphenyl)icosa-5 ,8 , 11,14-tetraen amide] the “neuronal survival and neurite length” value was “alleviate the phenomena of low neuronal survival rate and short neurite length”.
